Residues, ends and D or L forms follow the SMILES beside them. *: point of attachment. Cbz = O=C(OCc1ccccc1)*; Boc = CC(C)(C)OC(=O)*
melting point [°C]	SMILES
222 to 224	CCN1c2ncccc2C(=O)Nc2c(C)cc(NCCCO)nc21
70.8 to 73	CCN(CC)C(=O)/C=C(\C)c1ccc(OC(C)c2ccccc2)c2oc(C(C)=O)cc12 (centres undefined)
76 to 78	CCOCC1(O)CCN(c2ccc(N3C[C@H](CNC(C)=O)OC3=O)cc2F)CC1
255 to 257	O=C(Nc1ccc(N2CCCC2)nc1)c1cc2cc(F)ccc2n1Cc1ccncc1
230 to 231	CC(C)(C)n1nnc(NC(=O)C2c3ccccc3Oc3ccccc32)n1
62 to 63	CCCCNc1c(C(=O)OCC)c(C)nc2c1ncn2C
219 to 220	CC(C)(C)OC(=O)N1CCN(c2ccc(Nc3ncc4ccc(N)nc4n3)cc2)CC1
135 to 137	COc1nc(CC(=O)O)c([N+](=O)[O-])cc1C
112 to 114	Cc1cn(C(C)C(=O)N(C)C)nc1-c1ccc(Cl)s1 (centres undefined)
177 to 178	Cc1cccc(C)c1OCC(=O)NC(C)C(N)=O (centres undefined)
67 to 69	CSc1ccc2c(c1)C(O)Cc1ccc(C)cc1O2 (centres undefined)
213 to 215	CCOC(=O)c1cc(=O)cc(-c2ccc(O)cc2)o1
73	CNc1ccc(CCc2cc(OC)ccc2OC)cc1C(=O)OC
96 to 97.5	COC(=O)C=CC=Cc1ccccc1CNC(=O)OC(C)(C)C
117 to 119	COc1cc2c(cc1O)CCCC2=O
170 to 173	CCOC(=O)c1cn(-c2nnc(C)s2)c2cc(F)c(F)cc2c1=O
90 to 92	COc1ccc(CCNC(=S)Cc2nnnn2C)cc1OC
296 to 298	CC(=O)Nc1cc(I)c(-c2cc([N+](=O)[O-])c(NC(C)=O)cc2I)cc1[N+](=O)[O-]
71 to 73	CCCC[C@H](NC(=O)[C@H](COC(C)(C)C)NC(=O)OCc1ccccc1)C(=O)CSCc1ccco1
102 to 107	COC(=O)CCc1ccc(NC(=O)C(COC2CCCCO2)NS(=O)(=O)c2ccc(Cl)cc2)cc1 (racemic)
121 to 122	O=C(NN=C(c1ccc(Cl)cc1)c1ccc(OC(F)(F)C(Cl)Cl)cc1)c1ccccc1

melting point [°C]	SMILES
106 to 108	COc1cc(S(C)=O)c(C)cc1OCC(=O)NCC(O)COc1ccccc1C (centres undefined)
33 to 34	COC(=O)C(C)Nc1c(C)csc1C (centres undefined)
119 to 121	Oc1cc2c(cc1CNc1ccc(F)cc1F)OCC2
102 to 103	COc1cc(C(=O)O)cc(OC)c1Cl
169 to 172	Cc1c(C(=O)c2cccc(O)c2)sc(N)c1C(=O)OC(C)(C)C
106 to 108	CCOc1cc2c(cc1OCC)C(C(C#N)SCCC(=O)O)=NCC2 (centres undefined)
204 to 205	O=C(O)c1ccc(Nc2cc3c4c(c2)CCCC4CCC3)cc1
116 to 117	Cc1cc(C(=O)O)cc(C)c1N=C1NCCN1
289 to 291	Cc1cc(C)cc(NC(=O)NCc2ccc3c(c2)CN(C2CCC(=O)NC2=O)C3=O)c1 (centres undefined)
77.8 to 78.5	C=CCOc1ccc(C(=O)CC(C)(C#N)c2ccc(OC)cc2OC)cc1 (centres undefined)
125 to 126	C=C1c2ccccc2C(n2cncc2C(=O)OC)C1(C)C (centres undefined)
114	CNC(=O)N=c1ccc(C)cn1-c1cccc(C(F)(F)F)c1
91 to 94	Sc1nsnc1-c1c(Cl)cccc1Cl
115 to 116	CCCC(=O)c1cnc2c(OCC)nccc2c1OS(C)(=O)=O
94 to 95	CC(C)(C)NNC(=O)c1ccccc1
125 to 128	CC(C)CC(NC(=O)OCc1ccccc1)C(=O)NC(CCCCNC(=O)OC(C)(C)C)C(=O)O (stereo not drawn) (Cbz-Leu-Lys(Boc)-OH; configuration not given here)
120	CC(C)(C)OC(=O)Nc1cc(Cl)c(Cl)c(Cl)c1
242	Cc1c(C(=O)Nc2ccc(N3CCN(C4CCOCC4)CC3)c(C#N)c2)cnn1-c1ccc(Cl)c(Cl)c1
155 to 157	COc1cc(N2C(=O)N3CCCCC3C2O)c(F)cc1Cl (centres undefined)
148 to 152	CCCCCCCOc1ccc(CNc2ccc(C(=O)O)cc2)cc1

Further lines, the molecule ahead of its results:

SMILES	melting point [°C]
CCOc1ccc(-c2c(Cl)c(CN3C(=O)CCC3=O)nc3sc4c(c23)CCNC4)cc1	215 to 217
CC(C)NC(=O)NC1CCC(=O)c2ccccc21 (centres undefined)	185 to 188
O=C1NC(=O)c2c1c(-c1ccccc1Cl)cc1c2c2cc(O)c(OCCCN3CCOCC3)cc2n1CCO	253 to 255
O=C(Nc1ccc(F)nc1)OCC(Cl)(Cl)Cl	114 to 115
O=C(Cc1ccncc1)NCc1cccc2c1C(=O)N(C1CCC(=O)NC1=O)C2=O (centres undefined)	294 to 296
CCCCCCCN(CCCCCS(=O)(=O)c1nc(-c2ccccc2)c(-c2ccccc2)[nH]1)C(=O)Nc1ccc(F)cc1F	66 to 68
CCOC(=O)C(C(N)=O)C12CC3CC(CC(C3)C1)C2 (centres undefined)	97 to 98
CCC(=O)OC1(c2ccccc2)CCN(CCN2CNC(=O)c3ccccc32)CC1	141 to 144
O=C(O)COc1ccc2c(c1)CCc1sc(SCCC(c3ccccc3)c3ccccc3)nc1-2	138 to 140
Cc1cccc(C)c1N(CCn1ccnc1)C(=O)CCCc1cccnc1	104 to 106
O=C1CCCC(c2ccc(O)c(O)c2)N1c1ccc(Cl)cc1 (centres undefined)	205 to 207
COc1cc(-n2nc(C(F)(F)F)cc2-c2ccc(-c3ccco3)cc2)ccc1S(C)(=O)=O	139
CC(C)(C)N(CC(O)CONC(=O)NC1CCCCC1)C(=O)NC1CCCCC1 (centres undefined)	151 to 152
CC(=O)SCCC(=O)NC(Cc1cn(C=O)c2ccccc12)C(=O)O (racemic)	130 to 133
Cc1ccc(-c2nnc(N3CCCCCC3)nc2-c2ccc(C)cc2)cc1	162 to 164
COC(=O)c1ccc(S(=O)(=O)C[N+](=O)[O-])cc1	106 to 108
CCCCNc1c(CO)cnc2c1cnn2CC	60 to 72
CSc1ccc(C(O)(c2ccc(Cl)cc2)C2CCN(CCO)C2=O)cc1 (centres undefined)	141
CCCCCCCC(=O)NCCCCOS(C)(=O)=O	59 to 60
CCCc1ccc(S(=O)(=O)NCc2ccccn2)cc1	109

SMILES	melting point [°C]
CC(CO)NC(=O)CCCCC1CCSS1 (centres undefined)	52 to 56
Cc1cccc(NC(=O)NCC(=O)N(CC(=O)N2CCCCCC2)c2ccccc2)c1	245
Cc1ccc(OC(CCCCCc2ccc(Cl)cc2)C(=O)O)cc1 (centres undefined)	74 to 76
COC(=O)C1=CC(C(=O)c2cc(Br)cc(Br)c2O)=CN2CCc3c([nH]c4ccccc34)C12C(=O)OC (centres undefined)	131
Cc1cc(Cl)ccc1N=CN(C)SN(c1ccccc1)c1ccccc1	78 to 79
CC1CN(c2c(F)cc3c(=O)c(C(=O)O)cn(C4CC4)c3c2OC(F)F)CCN1 (centres undefined)	223 to 225
O=C(O)CCCCCNS(=O)(=O)c1ccc(Cl)cc1	126 to 127
Cc1ccc(N2C(=O)N(CC(=O)Nc3c(C(C)C)cccc3C(C)C)C(=O)C23CCC(O)CC3)cc1 (centres undefined)	142 to 144
COc1ccc(C2SCc3c(sc(N)c3C(=O)c3ccc(Cl)cc3)S2)cc1 (centres undefined)	158 to 160
O=C(O)CC(C(=O)NC(CO)Cc1ccccc1)C1(c2ccc(-c3ccccc3)cc2)C=CNC1 (centres undefined)	151 to 154
O=C(NCc1ccc(F)cc1)c1ccnc(N2CCN(C(F)(F)c3ccc(C(F)F)cc3)C2=O)c1	173 to 175
COc1ccc(-c2cccc(-c3nc(-c4ccc(C(F)(F)F)cc4)oc3C)c2)cc1	93 to 94
CC1=CC(C)=Nc2c(ccc3nc(O)c(O)nc23)N1	> 300
CS(=O)(=O)Nc1cccc(Nc2nc(N3CCN(c4ccncc4)CC3)c3nc[nH]c3n2)c1	227 to 230
CC(C)(C)c1cc(-c2cc(C(C)(C)C)cc(-n3nc4ccccc4n3)c2O)c(O)c(-n2nc3ccccc3n2)c1	234
NCC(=O)Nc1ccc([N+](=O)[O-])cc1C(=NO)c1ccccc1F	198
CC1CCCCC1C(=O)Nc1ccc(-c2cnc(-c3ccc(NC(=O)c4cccnc4)cc3)[nH]2)cc1 (centres undefined)	226 to 228
Fc1ccc(-c2c[nH]c3ccccc23)cc1	98 to 100
CCc1ccc2c(c1)C(=O)CCCC(=O)N2	138 to 140
COc1ccc(-n2nc(N3CCN(C(N)=O)CC3)c3ccccc32)cc1	155 to 157

SMILES	melting point [°C]
CC(CO)Nc1ccc(-c2cccc(C(F)(F)F)c2)nn1 (centres undefined)	143 to 144
O=C1NCc2c(Oc3ccccc3)cccc2N1c1ccccc1	225 to 227
COc1ccc(S(=O)(=O)NCc2ccc(O)cc2)cc1	161 to 162
CN(C)C(=O)Nc1c(Cl)cc2c(c1Cl)C(c1ccccc1F)=NCC(=O)N2C	145 to 147
O=C(CCCN1CCN(c2ccc(F)cc2)CC1)NC1c2ccccc2C=Cc2ccccc21	233 to 235
CCN(CC)CCNC(=O)N(CCS(=O)(=O)c1ccc(OC)cc1)C(C)C	39.5 to 42
Nc1cc(OCc2ccccc2)cc(OCc2ccccc2)c1	77 to 80
CC(=O)N1CCC(COC2c3ccccc3C(=O)N2c2ccc3ccc(Cl)nc3n2)CC1 (centres undefined)	160
CCCCc1nc2c(N)nc3ccc(OCC(=O)N(CCOC)CCOC)cc3c2n1C	125 to 128
CN(C)C(=O)c1c(-c2ccc(C(F)(F)F)cc2)ccc2ccccc12	184 to 186
CCN=C1SC2CCOc3ccc([N+](=O)[O-])cc3C2(O)N1CC (centres undefined)	125 to 127
O=C(C=Cc1ccc(O)c([N+](=O)[O-])c1)NC12CC3CC(CC(C3)C1)C2	162 to 163
COc1ccc2c(c1)NC(=O)C(CCCBr)O2 (centres undefined)	102 to 103
O=C(O)Cc1cccc(-c2cccc(COC3OC(CO)C(O)C(O)C3O)c2)c1 (centres undefined)	74 to 75
Cn1c2cc(Cl)ccc2c2c(C(=O)O)nc(-c3ccccc3)nc21	208 to 209
O=C(Cc1ccc(CN2CCCC2)cc1)NCc1ccc(Br)cc1	107 to 109
CCc1ccc2c(c1)C(c1ccccc1F)=NCc1cnc(C)n1-2	152 to 154
CCOC(=O)Cc1nc(-c2ccc(C)cc2)oc1-c1ccco1	84 to 85
